According to patent US20230129485A1, “SYSTEM AND METHOD FOR DETERMINING MATERIAL PROPERTIES OF MOLECULAR SYSTEMS FROM AN AB-INITIO PARAMETERIZED FORCE-FIELD” (InterX, Inc., priority 2021, published 2023):
Like-named read-outs stand apart in the source and are kept apart here.

Tests used:
[1] = Free energy of hydration by COSMO-RS
Procedure, shortened: (§1)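 Computed, not measured. COSMO: run in MolPro on the dataset. SMD/PCM: predicted values supplied externally. SMD, PCM, COSMO-RS restricted to the overlap with the QM-parameterized force field molecule set.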

[2] = Free energy of hydration by Polarizable Continuum Model (PCM); settings: absolute error vs Exp (hydration)
Procedure, shortened: as §1

[3] = Free energy of solvation in cyclohexane predicted with the QM-parameterized force field model (ARROW FF), MD and PIMD; settings: Table 4; for CHEX Arrow MD Error: error of MD cyclohexane solvation free energy vs experiment; for CHEX Arrow PIMD4 Error: error of PIMD4 cyclohexane solvation free energy vs experiment
Description: Cyclohexane (CHEX) is nonpolar and equilibrates relatively quickly.
Particle-Mesh Ewald (PME) algorithm was used to compute the electrostatic interactions. A 32×32×32 grid mesh and 5th power spline interpolation order can be used to compute the inverse PME sum. 9 Å cutoffs were used to compute the direct PME sum as well as the exchange and dispersion interactions. Bulk corrections were applied to account for distance cut-off of dispersion interactions. Solvation free energies were computed by decoupling the interactions between the solute and the solvent molecules. Electrostatic, exchange-repulsion and dispersion interactions were switched off simultaneously using a lambda-dependent scaling (a scaling factor power=2 was used) and a soft-coring algorithm (maximal soft-coring radius=1.5 Å, soft-coring radius scaling factor power=1). 15 lambda points unequally spaced (X=0, 0.05, 0.1, 0.2, 0.3, 0.4, 0.5, 0.6, 0.7, 0.75, 0.8, 0.85, 0.9, 0.95, 1.0) were used to decouple the solute-solvent intermolecular interactions.
In some simulations of the QM-parameterized force field molecular simulation process, energy minimization (10,000 steps) using the steepest descent algorithm was initially performed on all the simulation systems. This was followed by a 50 ps equilibration and 1 ns production runs in the isothermal-isobaric ensemble (NPT). […] Pressure was maintained at 1 atm using a MTTK barostat (relaxation time=5 ps). A Multiple Time Step (MTS) algorithm was used to integrate the equations of motion both for the classical and path-integral runs. […] The calculations were performed using the QM-parameterized force field model.
Using the QM-parameterized force field model, the QM-parameterized force field device can compute or predict the solvation free energies using both the Bennett acceptance ratio (BAR) and thermodynamic integration (TI) method with <dH/dλ> values interpolated by cubic splines.

[4] = implicit solvent model, values received; cited from earlier work
[5] = Table 5; free energy of hydration, GAFF prediction taken from literature; cited from earlier work
[6] = experimental, cited from earlier work
[7] = Free energy of hydration predicted with the QM-parameterized force field model (ARROW FF), classical MD and PIMD simulation in a water box; settings: for Arrow error: Table 5, error of Arrow PIMD8 hydration free energy vs experiment; for Arrow PIMD8 Error: absolute error vs Exp (hydration)
Procedure, shortened: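 Classical and PIMD runs (MTS integrator, MTTK barostat at 1 atm) followed minimization and 50 ps equilibration, with 1 ns NPT production per window. Fifteen unequally spaced lambda windows removed all solute-solvent interactions simultaneously in a 32 Å water box. Hydration free energy computed by Bennett acceptance ratio and thermodynamic integration.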

[8] = experimental, cited from earlier work; for Exp (hydration): Table 5
[9] = Free energy of hydration by Solvation Model Dielectric (SMD) implicit solvent model; settings: absolute error vs Exp (hydration)
Procedure, shortened: as §1

[10] = implicit solvent model, values received; cited from earlier work; remark: listed apart in the source
[11] = Table 5; free energy of hydration, AMOEBA prediction taken from literature; cited from earlier work
[12] = Free energy of hydration by COSMO implicit solvent model (MolPro ver. 2012); settings: absolute error vs Exp (hydration)
Procedure, shortened: as §1

[13] = Free energy of hydration predicted by General Amber Force Field (GAFF), from literature; settings: Table 5; error of GAFF hydration free energy vs experiment
[14] = Free energy of hydration predicted by polarizable AMOEBA force field, from literature; settings: Table 5; error of AMOEBA hydration free energy vs experiment
[15] = CHEX/H2O partition coefficient (log D) predicted with the QM-parameterized force field model (ARROW FF)
Procedure, shortened: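 Cyclohexane/water partition coefficients were predicted by molecular simulation with a QM-parameterized force field, with bonded force constants and equilibrium values fitted to MP2/aug-cc-pVTZ energies. Solutes carried neutral functional groups, and results from four independent groups were averaged.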

[16] = Table 3; CHEX/H2O partition coefficient, experimental; cited from earlier work
[17] = Table 3, free energy of solvation in cyclohexane
[18] = Table 4, solvation free energy in cyclohexane
[19] = Table 3, absolute error of MD hydration free energy vs experiment
[20] = Table 3, absolute error of PIMD8 hydration free energy vs experiment
[21] = Table 4, error of MD hydration free energy vs experiment
[22] = Table 4, error of PIMD8 hydration free energy vs experiment
[23] = Table 3, free energy of hydration
[24] = Table 4, neutral amino-acid analogues
[25] = Table 3, absolute error of MD log D vs experiment
[26] = Table 3, absolute error of PIMD log D vs experiment

SMILES: CC(N)=O [Acetamide]
- COSMO-RS error [1]: 2.55 kcal/mol
- PCM Error [2]: 2.81 kcal/mol
- CHEX Arrow MD Error [3]: 0.63 kcal/mol
- CHEX Arrow PIMD4 Error [3]: 0.58 kcal/mol
- PCM free energy of hydration [4]: -6.90 kcal/mol
- GAFF [5]: -7.80 kcal/mol
- CHEX Exp (solvation) [6, 17]: -3.01 kcal/mol
- CHEX Exp (solvation) [6, 18]: -3.01 kcal/mol
- water Arrow MD Error [7, 19]: 0.87 kcal/mol
- water Arrow PIMD8 Error [7, 20]: 0.06 kcal/mol
- water Arrow MD Error [7, 21]: 0.87 kcal/mol
- water Arrow PIMD8 Error [7, 22]: 0.06 kcal/mol
- Arrow error [7]: 0.06 kcal/mol
- Arrow PIMD8 Error [7]: 0.06 kcal/mol
- water Exp (hydration) [8, 23]: -9.71 kcal/mol
- water Exp (hydration) [8, 24]: -9.71 kcal/mol
- Exp (hydration) ([8]; free energy of hydration): -9.71 kcal/mol
- SMD Error [9]: 0.71 kcal/mol
- SMD free energy of hydration [10]: -9.00 kcal/mol
- AMOEBA [11]: -9.30 kcal/mol
- COSMO/Molpro Error [12]: 4.11 kcal/mol
- GAFF error [13]: 1.91 kcal/mol
- AMOEBA error [14]: 0.41 kcal/mol

SMILES: CC(=O)O [AceticAcid]
- COSMO-RS error [1]: 0.22 kcal/mol
- PCM Error [2]: 2.19 kcal/mol
- CHEX Arrow MD Error [3]: 0.09 kcal/mol
- CHEX Arrow PIMD4 Error [3]: 0.01 kcal/mol
- PCM free energy of hydration [4]: -4.50 kcal/mol
- GAFF [5]: -5.95 kcal/mol
- CHEX Exp (solvation) [6, 17]: -2.20 kcal/mol
- CHEX Exp (solvation) [6, 18]: -2.20 kcal/mol
- water Arrow MD Error [7, 19]: 0.19 kcal/mol
- water Arrow PIMD8 Error [7, 20]: 0.34 kcal/mol
- water Arrow MD Error [7, 21]: 0.19 kcal/mol
- water Arrow PIMD8 Error [7, 22]: 0.34 kcal/mol
- Arrow error [7]: 0.34 kcal/mol
- Arrow PIMD8 Error [7]: 0.34 kcal/mol
- water Exp (hydration) [8, 23]: -6.69 kcal/mol
- water Exp (hydration) [8, 24]: -6.69 kcal/mol
- Exp (hydration) ([8]; free energy of hydration): -6.69 kcal/mol
- SMD Error [9]: 0.99 kcal/mol
- SMD free energy of hydration [10]: -5.70 kcal/mol
- AMOEBA [11]: -5.63 kcal/mol
- COSMO/Molpro Error [12]: 2.47 kcal/mol
- GAFF error [13]: 0.74 kcal/mol
- AMOEBA error [14]: 1.06 kcal/mol

SMILES: Nc1ccccc1 [Aniline]
- COSMO-RS error [1]: 0.23 kcal/mol
- log D Arrow MD Error [15, 25]: 0.18
- log D Arrow PIMD Error [15, 26]: 0.13
- PCM Error [2]: 1.44 kcal/mol
- PCM free energy of hydration [4]: -4.10 kcal/mol
- GAFF [5]: -5.92 kcal/mol
- CHEX Exp (solvation) [6, 17]: -5.52 kcal/mol
- water Arrow MD Error [7, 19]: 0.17 kcal/mol
- water Arrow PIMD8 Error [7, 20]: 0.06 kcal/mol
- Arrow error [7]: 0.06 kcal/mol
- Arrow PIMD8 Error [7]: 0.06 kcal/mol
- water Exp (hydration) [8, 23]: -5.54 kcal/mol
- Exp (hydration) ([8]; free energy of hydration): -5.54 kcal/mol
- SMD Error [9]: 0.74 kcal/mol
- SMD free energy of hydration [10]: -4.80 kcal/mol
- Exp (log D) [16]: −0.01
- AMOEBA [11]: -4.78 kcal/mol
- COSMO/Molpro Error [12]: 2.13 kcal/mol
- GAFF error [13]: 0.38 kcal/mol
- AMOEBA error [14]: 0.76 kcal/mol

SMILES: c1ccccc1 [Benzene]
- COSMO-RS error [1]: 0.01 kcal/mol
- PCM Error [2]: 0.72 kcal/mol
- PCM free energy of hydration [4]: -1.60 kcal/mol
- GAFF [5]: -0.70 kcal/mol
- CHEX Exp (solvation) [6, 17]: -4.19 kcal/mol
- water Arrow MD Error [7, 19]: 0.58 kcal/mol
- water Arrow PIMD8 Error [7, 20]: 0.17 kcal/mol
- Arrow error [7]: 0.17 kcal/mol
- Arrow PIMD8 Error [7]: 0.17 kcal/mol
- water Exp (hydration) [8, 23]: -0.88 kcal/mol
- Exp (hydration) ([8]; free energy of hydration): -0.88 kcal/mol
- SMD Error [9]: 0.18 kcal/mol
- SMD free energy of hydration [10]: -0.70 kcal/mol
- AMOEBA [11]: -0.86 kcal/mol
- COSMO/Molpro Error [12]: 2.32 kcal/mol
- GAFF error [13]: 0.18 kcal/mol
- AMOEBA error [14]: 0.02 kcal/mol

SMILES: CCCCCCCC [Octane]
- COSMO-RS error [1]: 0.10 kcal/mol
- log D Arrow MD Error [15]: 0.50
- log D Arrow PIMD Error [15]: 0.20
- PCM Error [2]: 3.19 kcal/mol
- PCM free energy of hydration [4]: -0.30 kcal/mol
- GAFF [5]: 3.13 kcal/mol
- CHEX Exp (solvation) [6, 17]: -5.63 kcal/mol
- water Arrow MD Error [7, 19]: 1.27 kcal/mol
- water Arrow PIMD8 Error [7, 20]: 0.06 kcal/mol
- Arrow error [7]: 0.04 kcal/mol
- Arrow PIMD8 Error [7]: 0.06 kcal/mol
- water Exp (hydration) [8, 23]: 2.89 kcal/mol
- Exp (hydration) ([8]; free energy of hydration): 2.88 kcal/mol
- SMD Error [9]: 0.19 kcal/mol
- SMD free energy of hydration [10]: 2.70 kcal/mol
- Exp (log D) [16]: 6.25
- AMOEBA [11]: 1.74 kcal/mol
- COSMO/Molpro Error [12]: 3.74 kcal/mol
- GAFF error [13]: 0.25 kcal/mol
- AMOEBA error [14]: 1.14 kcal/mol

SMILES: Oc1ccccc1 [Phenol]
- COSMO-RS error [1]: 0.62 kcal/mol
- log D Arrow MD Error [15, 25]: 0.65
- log D Arrow PIMD Error [15, 26]: 0.21
- PCM Error [2]: 2.62 kcal/mol
- PCM free energy of hydration [4]: -4.00 kcal/mol
- GAFF [5]: -5.67 kcal/mol
- CHEX Exp (solvation) [6, 17]: -5.56 kcal/mol
- water Arrow MD Error [7, 19]: 1.02 kcal/mol
- water Arrow PIMD8 Error [7, 20]: 0.18 kcal/mol
- Arrow error [7]: 0.18 kcal/mol
- Arrow PIMD8 Error [7]: 0.18 kcal/mol
- water Exp (hydration) [8, 23]: -6.62 kcal/mol
- Exp (hydration) ([8]; free energy of hydration): -6.62 kcal/mol
- SMD Error [9]: 1.42 kcal/mol
- SMD free energy of hydration [10]: -5.20 kcal/mol
- Exp (log D) [16]: −0.78
- AMOEBA [11]: -5.05 kcal/mol
- COSMO/Molpro Error [12]: 0.92 kcal/mol
- GAFF error [13]: 0.95 kcal/mol
- AMOEBA error [14]: 1.57 kcal/mol

SMILES: CCN [ethylamine]
- COSMO-RS error [1]: 0.30 kcal/mol
- log D Arrow MD Error [15, 25]: 0.69
- log D Arrow PIMD Error [15, 26]: 0.08
- PCM Error [2]: 1.70 kcal/mol
- PCM free energy of hydration [4]: -2.80 kcal/mol
- GAFF [5]: -3.14 kcal/mol
- CHEX Exp (solvation) [6, 17]: -2.13 kcal/mol
- water Arrow MD Error [7, 19]: 1.03 kcal/mol
- water Arrow PIMD8 Error [7, 20]: 0.12 kcal/mol
- Arrow error [7]: 0.12 kcal/mol
- Arrow PIMD8 Error [7]: 0.12 kcal/mol
- water Exp (hydration) [8, 23]: -4.50 kcal/mol
- Exp (hydration) ([8]; free energy of hydration): -4.50 kcal/mol
- SMD Error [9]: 0.70 kcal/mol
- SMD free energy of hydration [10]: -3.80 kcal/mol
- Exp (log D) [16]: −1.74
- AMOEBA [11]: -4.33 kcal/mol
- COSMO/Molpro Error [12]: 1.30 kcal/mol
- GAFF error [13]: 1.36 kcal/mol
- AMOEBA error [14]: 0.17 kcal/mol

SMILES: CN(C)C [trimethylamine]
- COSMO-RS error [1]: 2.55 kcal/mol
- log D Arrow MD Error [15]: 0.10
- log D Arrow PIMD Error [15]: 0.43
- PCM Error [2]: 1.90 kcal/mol
- PCM free energy of hydration [4]: -1.30 kcal/mol
- GAFF [5]: -2.32 kcal/mol
- CHEX Exp (solvation) [6, 17]: -2.63 kcal/mol
- water Arrow MD Error [7, 19]: 1.04 kcal/mol
- water Arrow PIMD8 Error [7, 20]: 0.02 kcal/mol
- Arrow error [7]: 0.02 kcal/mol
- Arrow PIMD8 Error [7]: 0.02 kcal/mol
- water Exp (hydration) [8, 23]: -3.20 kcal/mol
- Exp (hydration) ([8]; free energy of hydration): -3.20 kcal/mol
- SMD Error [9]: 0.70 kcal/mol
- SMD free energy of hydration [10]: -2.50 kcal/mol
- Exp (log D) [16]: −0.42
- AMOEBA [11]: -2.09 kcal/mol
- COSMO/Molpro Error [12]: 0.30 kcal/mol
- GAFF error [13]: 0.88 kcal/mol
- AMOEBA error [14]: 1.11 kcal/mol
